According to ChEMBL document CHEMBL5050844 (2019):

How the values were obtained:
Assay type in all cases: functional, T cell line
[1] = Induction of anti-CD3/CD28 antibodies-stimulated human T cell activation at 4 uM assessed fold increase in IL-2 secretion measured by ELISA assay
[2] = Induction of anti-CD3/CD28 antibodies-stimulated human T cell activation at 1 uM assessed fold increase in IL-2 secretion measured by ELISA assay
[3] = Induction of anti-CD3/CD28 antibodies-stimulated human T cell activation at 0.3 uM assessed fold increase in IL-2 secretion measured by ELISA assay
[4] = Induction of anti-CD3 antibodies-stimulated human T cell activation at 8 uM assessed fold increase in IL-2 secretion measured by ELISA assay; further: reference of the scale not given here
[5] = Induction of anti-CD3 antibodies-stimulated human T cell activation at 1 uM assessed fold increase in IL-2 secretion measured by ELISA assay; further: reference of the scale not given here
[6] = Induction of anti-CD3/CD28 antibodies-stimulated human T cell activation at 4 uM assessed fold increase in CD25 expression measured by ELISA assay
[7] = Induction of anti-CD3/CD28 antibodies-stimulated human T cell activation at 1 uM assessed fold increase in CD25 expression measured by ELISA assay
[8] = Induction of anti-CD3/CD28 antibodies-stimulated human T cell activation at 0.3 uM assessed fold increase in CD25 expression measured by ELISA assay
[9] = Induction of anti-CD3 antibodies-stimulated human T cell activation at 8 uM assessed fold increase in CD25 expression measured by ELISA assay; further: reference of the scale not given here
[10] = Induction of anti-CD3 antibodies-stimulated human T cell activation at 1 uM assessed fold increase in CD25 expression measured by ELISA assay; further: reference of the scale not given here

Row | SMILES | fold change (FC) [1] | fold change (FC) [2] | fold change (FC) [3] | fold change (FC) [4] | fold change (FC) [5] | fold change (FC) [6] | fold change (FC) [7] | fold change (FC) [8] | fold change (FC) [9] | fold change (FC) [10]
1 | C[C@H](Cc1nncn1C)c1cccc(N2Cc3c(cc(C4CC4)nc3C3CC3)C2=O)c1 | 5 | 1.01 | 1.01 | >=0.201 | 0.051 | >=1.76 | 1.01 | 1.01 | 0.801 | 0.601
2 | C[C@H](Cc1nncn1C)c1ccnc(N2Cc3c(cccc3C(F)(F)F)C2=O)c1 | 1.01 | <=1 | <=1 | <=0.05 | <=0.05 | 1.31 | 1.01 | 1.01 | <=0.6 | <=0.6
3 | C[C@H](Sc1nncn1C)c1cccc(N2Cc3c(cccc3C(F)(F)F)C2=O)c1 | 1.01 | <=1 | <=1 | <=0.05 | <=0.05 | 1.01 | 1.01 | <=1 | 0.801 | 0.601
4 | C[C@H](Cc1nncn1C)c1cccc(NC(=O)c2cccc(S(C)(=O)=O)n2)c1 | 2.51 | 1.01 | 1.01 | 0.051 | 0.051 | >=1.76 | >=1.76 | 1.01 | <=0.6 | <=0.6
5 | C[C@H](Sc1nncn1C)c1cccc(NC(=O)c2ccc(Cl)c(C(F)(F)F)n2)c1 | 1.01 | <=1 | <=1 | <=0.05 | <=0.05 | 1.01 | 1.01 | 1.01 | >=1.001 | 0.801
6 | C[C@H](Sc1nncn1C)c1cccc(NC(=O)c2cccc(S(C)(=O)=O)n2)c1 | 1.01 | 1.01 | <=1 | <=0.05 | <=0.05 | 1.01 | 1.01 | 1.01 | <=0.6 | <=0.6
7 | C[C@H](Sc1nncn1C)c1cccc(NC(=O)c2cc(C(=O)N3CC(O)C3)ccn2)c1 | <=1 | <=1 | <=1 | <=0.05 | <=0.05 | <=1 | <=1 | <=1 | 0.601 | <=0.6
8 | C[C@H](Cc1nncn1C)c1cccc(N2Cc3c(cc([C@@H]4CCCNC4)cc3C(F)(F)F)C2=O)c1 | 5 | 5 | 2.51 | >=0.201 | 0.101 | 1.51 | 1.31 | 1.01 | >=1.001 | 0.601
9 | Cn1cnnc1C(F)[C@](C)(F)c1cccc(N2Cc3c(cccc3C(F)(F)F)C2=O)c1 (single isomer, unassigned) | <=1 | <=1 | <=1 | 0.051 | <=0.05 | 1.01 | <=1 | <=1 | 0.601 | <=0.6
10 | C[C@@H](Cc1nncn1C)c1cccc(NC(=O)c2cc(C3CC3)cc(C(F)(F)F)n2)c1 | 1.01 | 1.01 | 1.01 | 0.101 | 0.051 | 1.01 | 1.01 | 1.01 | 0.601 | 0.601
11 | C[C@H](Sc1nncn1C)c1cccc(N2Cc3c(ccnc3Cl)C2=O)c1 | 2.51 | <=1 | 1.01 | 0.101 | <=0.05 | >=1.76 | 1.01 | 1.51 | 0.601 | <=0.6
12 | Cc1cc(C(=O)Nc2cccc([C@H](C)Sc3nncn3C)c2)nc2ccccc12 | 2.51 | 1.01 | 1.01 | 0.101 | 0.051 | 1.01 | 1.01 | 1.01 | 0.801 | 0.601
13 | C[C@H](Cc1nncn1C)c1cccc(N2Cc3c(ccnc3C3CCC3)C2=O)c1 | 5 | 2.51 | 1.01 | 0.101 | 0.051 | 1.01 | 1.01 | <=1 | >=1.001 | >=1.001
14 | Cn1cnnc1CC1(c2cccc(NC(=O)c3ccnc(C(F)(F)F)n3)c2)COC1 | 2.51 | 2.51 | 1.01 | 0.151 | 0.051 | 1.01 | 1.01 | 1.01 | >=1.001 | 0.601
15 | CNS(=O)(=O)c1cc(C(=O)Nc2cccc([C@H](C)Cc3nncn3C)c2)nc(C(F)(F)F)c1 | <=1 | 1.01 | 1.01 | >=0.201 | 0.151 | 1.01 | 1.01 | 1.01 | >=1.001 | 0.801
16 | Cn1cnnc1[C@H](F)[C@@](C)(F)c1cccc(N2Cc3c(cc(C4CC4)cc3C(F)(F)F)C2=O)c1 (single isomer, unassigned; 483) | 1.01 | 1.01 | <=1 | 0.051 | 0.051 | 1.01 | 1.01 | 1.01 | 0.801 | 0.601
17 | C[C@H](Sc1nncn1C)c1ccnc(NC(=O)c2cc(C3CC3)cc(C(F)(F)F)n2)c1 | 1.01 | 1.01 | 1.01 | <=0.05 | <=0.05 | 1.01 | <=1 | <=1 | 0.801 | 0.601
18 | C[C@H](CO)Nc1cc([C@H](C)Cc2nncn2C)cc(N2Cc3c(cccc3C(F)(F)F)C2=O)n1 | 5 | 2.51 | 1.01 | >=0.201 | 0.051 | 1.31 | 1.01 | 1.01 | >=1.001 | 0.801
19 | C[C@H](O)CNc1cc([C@H](C)Cc2nncn2C)cc(N2Cc3c(cccc3C(F)(F)F)C2=O)n1 | 1.01 | 1.01 | 1.01 | 0.101 | 0.051 | 1.01 | 1.01 | 1.01 | 0.601 | 0.601
20 | C[C@H](Sc1nncn1C)c1cccc(NC(=O)c2ccnc(C(F)(F)F)n2)c1 | 1.01 | 1.01 | 1.01 | 0.051 | <=0.05 | 1.01 | 1.01 | 1.01 | 0.801 | 0.601
21 | Cn1cnnc1C[C@]1(c2cccc(N3Cc4c(cccc4C(F)(F)F)C3=O)c2)C[C@H](CO)C1 | 5 | 2.51 | 1.01 | >=0.201 | 0.101 | 1.51 | 1.51 | 1.31 | >=1.001 | 0.801
22 | CC1CCc2c1n[nH]c2C(=O)Nc1cccc([C@H](C)Cc2nncn2C)c1 (stereo not given in full) | 5 | 2.51 | 1.01 | >=0.201 | 0.101 | 1.01 | <=1 | <=1 | >=1.001 | 0.601
